# Data: patent US9611248B2, “Chemical compounds” (Syngenta Participations AG, priority 2013, dated 2017)
# Test system: a variety of test species
# Assay: Post-emergence herbicidal activity
# Assay type: in vivo
# Design: key to ABUTH (Abutilon theophrasti) damage score / AMARE (Amaranthus retroflexus) damage score / ALOMY (Alopecurus myosuroides) damage score / ECHCG (Echinochloa crus-galli) damage score / ZEAMX (Zea mays) damage score / SOLNI (Solanum nigrum) damage score: 0 = no damage to plant, 5 = total damage to plant
# Conditions: rate 250 g/ha, evaluated after 13 days
# Procedure, shortened: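 Damage on a 0–5 scale (5 = plant killed) was rated 13 days after treatment. Test species had been sown in standard soil and raised 8 days under glasshouse conditions of 24/16 °C, 14 h light, 65% humidity. They were then sprayed with aqueous solution from an acetone/water 50:50 formulation containing 0.5% Tween 20.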
SMILES,ABUTH (Abutilon theophrasti) damage score,ALOMY (Alopecurus myosuroides) damage score,AMARE (Amaranthus retroflexus) damage score,ECHCG (Echinochloa crus-galli) damage score,SETFA (Setaria faberi) damage score,ZEAMX (Zea mays) damage score
COC1=C(C)C(=O)N(c2cc(Cl)c(-c3ccccc3)cn2)C1O (stereo not drawn) [AD70],4,3,5,1,3,1
COC1=C(C)C(=O)N(c2cc(C(F)(F)F)c(OC3CCC3)cn2)C1O (stereo not drawn) [AD75],5,4,5,2,4,1
COC1=C(C)C(=O)N(c2cc(C(F)(F)F)c(OCCc3cccs3)cn2)C1O (stereo not drawn) [AD76],4,2,4,1,3,1
C=C(C)COc1cnc(N2C(=O)C(C)=C(OC)C2O)cc1C(F)(F)F (stereo not drawn) [AD77],5,3,5,1,4,0
COC1=C(C)C(=O)N(c2cc(C(F)(F)F)c(OCCOCc3ccccc3)cn2)C1O (stereo not drawn) [AD81],5,2,5,2,3,1
COC1=C(C)C(=O)N(c2cc(C(F)(F)F)c(OCCc3ccccc3)cn2)C1O (stereo not drawn) [AD85],5,2,5,2,4,1
COC1=C(C)C(=O)N(c2cc(C(F)(F)F)c(OCc3ccco3)cn2)C1O (stereo not drawn) [AD86],4,2,5,1,3,0
COC1=C(C)C(=O)N(c2cc(C(F)(F)F)c(OCCc3ccsc3)cn2)C1O (stereo not drawn) [AD87],4,3,5,2,3,1

# Same assay, conditions: rate 1000 g/ha, evaluated after 13 days
SMILES,ABUTH (Abutilon theophrasti) damage score,ALOMY (Alopecurus myosuroides) damage score,AMARE (Amaranthus retroflexus) damage score,ECHCG (Echinochloa crus-galli) damage score,SETFA (Setaria faberi) damage score,ZEAMX (Zea mays) damage score
COC1=C(C)C(=O)N(c2cc(C)c(-c3ccccc3C)cn2)C1O (stereo not drawn) [AD66],4,1,5,4,5,0
COC1=C(C)C(=O)N(c2cc(C(F)(F)Cl)ccn2)C1O (stereo not drawn) [AD67],5,4,5,5,5,1
CCOC(=O)c1cnc(N2C(=O)C(C)=C(OC)C2O)cc1Cl (stereo not drawn) [AD68],3,1,5,4,5,1
COC1=C(C)C(=O)N(c2cc(Cl)c(Br)cn2)C1O (stereo not drawn) [AD69],0,2,4,3,5,1
CCc1cc(N2C(=O)C(C)=C(OC)C2O)ncc1C=C(C)C (stereo not drawn) [AD71],4,2,5,3,5,2
CCCOc1cnc(N2C(=O)C(C)=C(OC)C2O)cc1C(F)(F)F (stereo not drawn) [AD72],5,5,5,5,5,2
C=CCCOc1cnc(N2C(=O)C(C)=C(OC)C2O)cc1C(F)(F)F (stereo not drawn) [AD73],5,4,5,4,5,1
COC1=C(C)C(=O)N(c2cc(C(F)(F)F)c(OCc3cccc(OC)c3)cn2)C1O (stereo not drawn) [AD74],3,2,5,2,5,1
CCCCOc1cnc(N2C(=O)C(C)=C(OC)C2O)cc1C(F)(F)F (stereo not drawn) [AD78],4,3,5,5,5,2
COC1=C(C)C(=O)N(c2cc(C(F)(F)F)c(OCCCF)cn2)C1O (stereo not drawn) [AD79],5,5,5,5,5,2
COC1=C(C)C(=O)N(c2cc(C(F)(F)F)c(OCCOC(C)(C)C)cn2)C1O (stereo not drawn) [AD80],4,3,5,4,5,1
COC1=C(C)C(=O)N(c2cc(C(F)(F)F)c(OCc3ccccc3)cn2)C1O (stereo not drawn) [AD82],4,2,5,3,5,1
COCCCOc1cnc(N2C(=O)C(C)=C(OC)C2O)cc1C(F)(F)F (stereo not drawn) [AD83],5,4,5,5,5,1
COC1=C(C)C(=O)N(c2cc(C(F)(F)F)c(OCCCc3ccccc3)cn2)C1O (stereo not drawn) [AD84],2,1,5,2,4,1
COC1=C(C)C(=O)N(c2cc(C(F)(F)F)c(Oc3ccccc3)cn2)C1O (stereo not drawn) [AD88],5,3,5,4,5,1
COC1=C(C)C(=O)N(c2cc(C(C)C)c(C(=O)NC(C)(C)C)cn2)C1O (stereo not drawn) [AD89],5,5,5,5,5,3
COC1=C(C)C(=O)N(c2cc(C)c(NC(=O)C(C)(C)C)cn2)C1O (stereo not drawn) [AD90],5,5,5,5,5,2
COC1=C(C)C(=O)N(c2cc(C)c(S(=O)(=O)N3CCOCC3)cn2)C1O (stereo not drawn) [AD91],0,0,2,0,0,2
CCN(CC)C(=O)c1cnc(N2C(=O)C(C)=C(OC)C2O)cc1C(F)(F)F (stereo not drawn) [AD92],5,4,4,5,4,3
COC1=C(C)C(=O)N(c2cc(C(F)(F)F)c(SCc3ccccc3)cn2)C1O (stereo not drawn) [AD93],3,2,4,3,4,0
COC1=C(C)C(=O)N(c2cc(C)c(S(=O)(=O)NC(C)(C)C)cn2)C1O (stereo not drawn) [AD94],1,1,0,1,1,0
COC1=C(C)C(=O)N(c2cc(C)c(S(=O)(=O)NC(C)C)cn2)C1O (stereo not drawn) [AD95],5,4,5,4,5,0
